# Test results from patent US20240002391A1, “4-ALKOXYPYRROLO[2,1-F][1,2,4]TRIAZINES AND PREPARATION AND USES THEREOF” (BioSplice Therapeutics, Inc., priority 2022, published 2024).
# Target: recombinant DYRK1A kinase (Homo sapiens (Human), UniProt Q13627)
# Assay: DYRK1A kinase assay (Ser/Thr 18 peptide Z-lyte FRET)
# Format: biochemical
# Details: DYRK1A kinase activity, Z-lyte Ser/Thr 18 peptide, 15 μM ATP; method text calls the value IC50; read-out: EC50 (the source's name)
# Method: Representative compounds were screened using the assay procedure for DYRK1A kinase activity as described below.
# Each compound was dissolved in DMSO as a 10 mM stock and used to prepare compound source plates. Serial dilution (1:3, 11-point dose-response curves from 10 μM to 0.00016 μM) and compound transfer was performed using the ECHO 550 (Labcyte, Sunnyvale, CA) into 1536-well black-walled round bottom plates (Coming).
# The DYRK1A kinase assay was run using the Ser/Thr 18 peptide Z-lyte assay kit according to manufacturer's instructions (Life Technologies-a Division of Thermo-Fisher). This is a non-radioactive assay using fluorescence resonance energy transfer (FRET) between coumarin and fluorescein to detect kinase activity which is represented as a ratio of coumarin emission/fluorescein emission.
# Briefly, recombinant DYRK1A kinase, ATP and Ser/Thr peptide 18 were prepared in 1X Kinase buffer to final concentrations of 0.25 μg/mL, 15 μM, and 4 μM respectively. The mixture was allowed to incubate with the representative compounds for one hour at room temperature. All reactions were performed in duplicate. Unphosphorylated (“0% Control”) and phosphorylated (“100% control”) forms of Ser/Thr 18 served as control reactions. Additionally, an 11-point dose-response curve of Staurosporine (luM top) was run to serve as a positive compound control.
# After incubation, Development Reagent A was diluted in Development Buffer then added to the reaction and allowed to further incubate for one hour at room temperature. The plate was read at Ex 400 Em 455 to detect the coumarin signal and Ex 400 Em 520 to measure the signal (EnVision Multilabel Plate Reader, PerkinElmer).
# The Emission ratio (Em) was calculated as a ratio of the coumarin (C) emission signal (at 445 nm)/Fluorescein (F) emission signal (at 520 nm). The percent phosphorylation was then calculated using the following formula: [1−((Em ratio X F100%)-C100%)/((C0%-C100%) +(Em ratio X (F100%−F0%)))]. Dose-response curves were generated, and inhibitory concentration (IC50) values were calculated using non-linear regression curve fit in the Dotmatics' Studies Software (Bishops Stortford, UK).
row,IC50,Structure (SMILES)
1,25.6 nM,"COc1nc(N[C@H]2C[C@](C)(NC(=O)OC(C)(C)C)C2)nn2ccc(-c3ccn4nccc4c3)c12 [Compound 98, tert-Butyl (trans-3-((4-methoxy-5-(pyrazolo[1,5-a]pyridin-5-yl)pyrrolo[2,1-f][1,2,4]triazin-2-yl)amino)-1-methylcyclobutyl)carbamate]"
2,4.5 nM,"CCOc1nc(NC2CC3(C2)CN(C(C)=O)C3)nn2ccc(-c3ccn4nccc4c3)c12 [Compound 99, 1-(6-((4-Ethoxy-5-(pyrazolo[1,5-a]pyridin-5-yl)pyrrolo[2,1-f][1,2,4]triazin-2-yl)amino)-2-azaspiro[3.3]heptan-2-yl)ethan-1-one]"
3,1.9 nM,"CNC(=O)c1cnn2ccc(-c3ccn4nc(NC5CCC6(CC5)COC6)nc(OC)c34)cc12 [Compound 102, 5-(2-((2-Oxaspiro[3.5]nonan-7-yl)amino)-4-methoxypyrrolo[2,1-f][1,2,4]triazin-5-yl)-N-methylpyrazolo[1,5-a]pyridine-3-carboxamide]"
4,5.9 nM,"COc1nc(N[C@H]2CC[C@](C)(O)CC2)nn2ccc(-c3ccc4ncc(C#N)n4c3)c12 [Compound 103, 6-(2-((trans-4-hydroxy-4-methylcyclohexyl)amino)-4-methoxypyrrolo[2,1-f][1,2,4]triazin-5-yl)imidazo[1,2-a]pyridine-3-carbonitrile]"
5,1.2 nM,"COc1nc(N[C@H]2CC[C@](C)(O)CC2)nn2ccc(-c3ccc4ncc(C(N)=O)n4c3)c12 [Compound 104, 6-(2-((trans-4-hydroxy-4-methylcyclohexyl)amino)-4-methoxypyrrolo[2,1-f][1,2,4]triazin-5-yl)imidazo[1,2-a]pyridine-3-carboxamide]"
6,0.9 nM,"CNC(=O)c1cnc2ccc(-c3ccn4nc(NC5CCC6(CC5)COC6)nc(OC)c34)cn12 [Compound 107, 6-(2-((2-Oxaspiro[3.5]nonan-7-yl)amino)-4-methoxypyrrolo[2,1-f][1,2,4]triazin-5-yl)-N-methylimidazo[1,2-a]pyridine-3-carboxamide]"
7,3.3 nM,"COc1nc(N[C@H]2C[C@@](C)(NC(C)=O)C2)nn2ccc(-c3ccc4nc(C)n(CC(F)F)c4c3)c12 [Compound 108, N-(cis-3-((5-(1-(2,2-Difluoroethyl)-2-methyl-1H-benzo[d]imidazol-6-yl)-4-methoxypyrrolo[2,1-f][1,2,4]triazin-2-yl)amino)-1-methylcyclobutyl)acetamide]"
8,1 nM,"COc1nc(N[C@H]2C[C@](C)(C(=O)N(C)C)C2)nn2ccc(-c3ccc4nc(C)n(CC(F)F)c4c3)c12 [Compound 109, trans-3-((5-(1-(2,2-Difluoroethyl)-2-methyl-1H-benzo[d]imidazol-6-yl)-4-methoxypyrrolo[2,1-f][1,2,4]triazin-2-yl)amino)-N,N,1-trimethylcyclobutane-1-carboxamide]"
9,2.6 nM,"COc1nc(N[C@H]2CC[C@](C)(O)CC2)nn2ccc(-c3ccc4nc(C)n(CC(F)F)c4c3)c12 [Compound 112, trans-4-((5-(1-(2,2-Difluoroethyl)-2-methyl-1H-benzo[d]imidazol-6-yl)-4-methoxypyrrolo[2,1-f][1,2,4]triazin-2-yl)amino)-1-methylcyclohexan-1-ol]"
10,3.3 nM,"COc1nc(N[C@H]2CN(C)C[C@H]2F)nn2ccc(-c3ccc4nc(C)n(CC(F)F)c4c3)c12 [Compound 113, 5-(1-(2,2-Difluoroethyl)-2-methyl-1H-benzo[d]imidazol-6-yl)-N-((3S,4R)-4-fluoro-1-methylpyrrolidin-3-yl)-4-methoxypyrrolo[2,1-f][1,2,4]triazin-2-amine]"
11,1.9 nM,"COc1nc(N[C@@H]2CN(C)C[C@@H]2F)nn2ccc(-c3ccc4nc(C)n(CC(F)F)c4c3)c12 [Compound 114, 5-(1-(2,2-Difluoroethyl)-2-methyl-1H-benzo[d]imidazol-6-yl)-N-((3R,4S)-4-fluoro-1-methylpyrrolidin-3-yl)-4-methoxypyrrolo[2,1-f][1,2,4]triazin-2-amine]"
12,1.6 nM,"COc1nc(NC2CCN(C(C)=O)CC2)nn2ccc(-c3ccc4nc(C)n(CC(F)F)c4c3)c12 [Compound 122, 1-(4-((5-(1-(2,2-Difluoroethyl)-2-methyl-1H-benzo[d]imidazol-6-yl)-4-methoxypyrrolo[2,1-f]1[1,2,4]triazin-2-yl)amino)piperidin-1-yl)ethan-1-one]"
13,2.8 nM,"COc1nc(N[C@@H]2CCN(C)C[C@@H]2F)nn2ccc(-c3ccc4nc(C)n(CC(F)F)c4c3)c12 [Compound 124, 5-(1-(2,2-Difluoroethyl)-2-methyl-1H-benzo[d]imidazol-6-yl)-N-((3S,4R)-3-fluoro-1-methylpiperidin-4-yl)-4-methoxypyrrolo[2,1-f][1,2,4]triazin-2-amine]"
14,2.2 nM,"COc1nc(N[C@H]2CCN(C)C[C@H]2F)nn2ccc(-c3ccc4nc(C)n(CC(F)F)c4c3)c12 [Compound 127, 5-(1-(2,2-Difluoroethyl)-2-methyl-1H-benzo[d]imidazol-6-yl)-N-((3R,4S)-3-fluoro-1-methylpiperidin-4-yl)-4-methoxypyrrolo[2,1-f][1,2,4]triazin-2-amine]"
15,2.6 nM,"COc1nc(N[C@@H]2CCN(CCF)C[C@@H]2F)nn2ccc(-c3ccc4nc(C)n(CC(F)F)c4c3)c12 [Compound 129, 5-(1-(2,2-Difluoroethyl)-2-methyl-1H-benzo[d]imidazol-6-yl)-N-((3S,4R)-3-fluoro-1-(2-fluoroethyl)piperidin-4-yl)-4-methoxypyrrolo[2,1-f][1,2,4]triazin-2-amine]"
16,1.9 nM,"COc1nc(N[C@H]2CCN(C3COC3)C[C@H]2F)nn2ccc(-c3ccc4nc(C)n(CC(F)F)c4c3)c12 [Compound 137, 5-(1-(2,2-Difluoroethyl)-2-methyl-1H-benzo[d]imidazol-6-yl)-N-((3R,4S)-3-fluoro-1-(oxetan-3-yl)piperidin-4-yl)-4-methoxypyrrolo[2,1-f][1,2,4]triazin-2-amine]"
17,4.3 nM,"COc1nc(N[C@@H]2CCN(C)CC2(F)F)nn2ccc(-c3ccc4nc(C)n(CC(F)F)c4c3)c12 [Compound 138, (R)—N-(3,3-Difluoro-1-methylpiperidin-4-yl)-5-(1-(2,2-difluoroethyl)-2-methyl-1H-benzo[d]imidazol-6-yl)-4-methoxypyrrolo[2,1-f][1,2,4]triazin-2-amine]"
18,6.9 nM,"COc1nc(N[C@H]2CCN(C)CC2(F)F)nn2ccc(-c3ccc4nc(C)n(CC(F)F)c4c3)c12 [Compound 139, (S)—N-(3,3-Difluoro-1-methylpiperidin-4-yl)-5-(1-(2,2-difluoroethyl)-2-methyl-1H-benzo[d]imidazol-6-yl)-4-methoxypyrrolo[2,1-f][1,2,4]triazin-2-amine]"
19,10.7 nM,"COc1nc(N[C@@H]2CCN(C3CCC3)CC2(F)F)nn2ccc(-c3ccc4nc(C)n(CC(F)F)c4c3)c12 [Compound 140, (R)—N-(1-Cyclobutyl-3,3-difluoropiperidin-4-yl)-5-(1-(2,2-difluoroethyl)-2-methyl-1H-benzo[d]imidazol-6-yl)-4-methoxypyrrolo[2,1-f][1,2,4]triazin-2-amine]"
20,21.8 nM,"COc1nc(N[C@H]2CCN(C3CCC3)CC2(F)F)nn2ccc(-c3ccc4nc(C)n(CC(F)F)c4c3)c12 [Compound 141, (S)—N-(1-Cyclobutyl-3,3-difluoropiperidin-4-yl)-5-(1-(2,2-difluoroethyl)-2-methyl-1H-benzo[d]imidazol-6-yl)-4-methoxypyrrolo[2,1-f][1,2,4]triazin-2-amine]"
21,2.7 nM,"COc1nc(N[C@@H]2CCN(C3COC3)CC2(F)F)nn2ccc(-c3ccc4nc(C)n(CC(F)F)c4c3)c12 [Compound 142, (R)—N-(3,3-Difluoro-1-(oxetan-3-yl)piperidin-4-yl)-5-(1-(2,2-difluoroethyl)-2-methyl-1H-benzo[d]imidazol-6-yl)-4-methoxypyrrolo[2,1-f][1,2,4]triazin-2-amine]"
22,10.8 nM,"COc1nc(N[C@H]2CCN(C3COC3)CC2(F)F)nn2ccc(-c3ccc4nc(C)n(CC(F)F)c4c3)c12 [Compound 143, (S)—N-(3,3-Difluoro-1-(oxetan-3-yl)piperidin-4-yl)-5-(1-(2,2-difluoroethyl)-2-methyl-1H-benzo[d]imidazol-6-yl)-4-methoxypyrrolo[2,1-f][1,2,4]triazin-2-amine]"
23,1.8 nM,"COc1nc(N[C@H]2C[C@@](C)(NC(C)=O)C2)nn2ccc(-c3cc(F)c4nc(C)n(CC(F)F)c4c3)c12 [Compound 148, N-((1s,3s)-3-((5-(1-(2,2-Difluoroethyl)-4-fluoro-2-methyl-1H-benzo[d]imidazol-6-yl)-4-methoxypyrrolo[2,1-f][1,2,4]triazin-2-yl)amino)-1-methylcyclobutyl)acetamide]"
